The CheMixHub viscosity set
Values joined by “and” are separate entries in the source; they are usually repeats but may differ in a detail not shown here. Equal values may be shown once. ± gives the uncertainty stated by the source. Each block holds one molecule with its values, some of them ahead of it.

Assays:
[1] = xn = mol fraction of the nth substance listed

SMILES: N#Cc1ccccc1
viscosity (293.15 K, 101 kPa): 1.335 ± 0.035 mPa·s | viscosity (293.15 K, 101.33 kPa): 1.382 ± 0.072 mPa·s | viscosity (298.15 K, 101 kPa): 1.237 ± 0.032 mPa·s and 1.196 ± 0.012 mPa·s and 1.249 ± 0.034 mPa·s | viscosity (298.15 K, 101.33 kPa): 1.282 ± 0.067 mPa·s | viscosity (303 K, 100 kPa): 1.099 ± 0.11 mPa·s | viscosity (303.15 K, 101 kPa): 1.161 ± 0.03 mPa·s and 1.121 ± 0.014 mPa·s and 1.124 ± 0.01 mPa·s | viscosity (303.15 K, 101.32 kPa): 1.139 ± 0.0041 mPa·s | viscosity (303.15 K, 101.33 kPa): 1.148 ± 0.02 mPa·s | viscosity (308 K, 100 kPa): 1.003 ± 0.1 mPa·s | viscosity (308.15 K, 101.33 kPa): 1.063 ± 0.02 mPa·s and 1.063 ± 0.018 mPa·s | viscosity (313 K, 100 kPa): 0.9545 ± 0.096 mPa·s | viscosity (313.15 K, 101 kPa): 0.997 ± 0.026 mPa·s | viscosity (313.15 K, 101.33 kPa): 0.993 ± 0.017 mPa·s | viscosity (318.15 K, 101 kPa): 0.931 ± 0.025 mPa·s | viscosity (323.15 K, 101 kPa): 0.872 ± 0.023 mPa·s and 0.866 ± 0.023 mPa·s

viscosity (298.15 K, 101 kPa): 17.98 ± 0.22 mPa·s | viscosity (303.15 K, 101 kPa): 13.53 ± 0.18 mPa·s
SMILES: C[C@H]1CCCC[C@H]1O

viscosity (293.15 K, 100 kPa): 106.7 ± 3.5 mPa·s | viscosity (298.15 K, 100 kPa): 73.92 ± 2 mPa·s | viscosity (303.15 K, 100 kPa): 53.38 ± 1.2 mPa·s | viscosity (308.15 K, 100 kPa): 40.19 ± 0.97 mPa·s | viscosity (313.15 K, 100 kPa): 31.07 ± 0.75 mPa·s
SMILES: CCCC[N+]1=C2CCCCCN2CCC1.c1c[n-]cn1

SMILES: CCCCC[N+](CC)(CC)CC.O=S(=O)([N-]S(=O)(=O)C(F)(F)F)C(F)(F)F
viscosity (293.15 K, 101.3 kPa): 233 ± 47 mPa·s | viscosity (298.15 K, 101.3 kPa): 169 ± 34 mPa·s | viscosity (303.15 K, 101.3 kPa): 126 ± 25 mPa·s | viscosity (308.15 K, 101.3 kPa): 96.4 ± 19 mPa·s | viscosity (313.15 K, 101.3 kPa): 75.1 ± 15 mPa·s | viscosity (318.15 K, 101.3 kPa): 59.6 ± 12 mPa·s | viscosity (323.15 K, 101.3 kPa): 48 ± 9.6 mPa·s

SMILES: Nc1cccc2ccccc12
viscosity (323.15 K, 101.33 kPa): 11.2 ± 0.11 mPa·s

viscosity (298.15 K, 101.33 kPa): 4.503 ± 0.064 mPa·s | viscosity (308.15 K, 101.33 kPa): 3.313 ± 0.048 mPa·s | viscosity (318.15 K, 101.33 kPa): 2.531 ± 0.037 mPa·s
SMILES: CCCCOCCCOCCCO

viscosity (293.15 K, 101 kPa): 56.56 ± 2.4 mPa·s | viscosity (298.15 K, 101 kPa): 46 ± 1.9 mPa·s | viscosity (303.15 K, 101 kPa): 37.95 ± 1.6 mPa·s | viscosity (308.15 K, 101 kPa): 31.87 ± 1.3 mPa·s | viscosity (313.15 K, 101 kPa): 27.01 ± 1.1 mPa·s | viscosity (318.15 K, 101 kPa): 23.24 ± 0.97 mPa·s | viscosity (323.15 K, 101 kPa): 20.16 ± 0.85 mPa·s
SMILES: CCCCn1cc[n+](C)c1.[Cl][Fe-]([Cl])([Cl])[Cl]

viscosity (298 K, 101.33 kPa): 0.3249 ± 0.0061 mPa·s
SMILES: CC(C)C(C)C

SMILES: CCOP(=O)([O-])OCC.CCn1cc[n+](C)c1
viscosity (293.15 K, 100 kPa): 566 ± 43 mPa·s | viscosity (298.15 K, 100 kPa): 396.6 ± 29 mPa·s | viscosity (303.15 K, 100 kPa): 285.4 ± 20 mPa·s | viscosity (308.15 K, 100 kPa): 208.7 ± 14 mPa·s | viscosity (313.15 K, 100 kPa): 155.3 ± 10 mPa·s | viscosity (318.15 K, 100 kPa): 117.2 ± 7.5 mPa·s | viscosity (323.15 K, 100 kPa): 91.75 ± 5.8 mPa·s

SMILES: CCCOCCO
viscosity (293.15 K, 101 kPa): 2.575 ± 0.024 mPa·s | viscosity (298.15 K, 101 kPa): 2.35 ± 0.018 mPa·s and 2.35 ± 0.023 mPa·s | viscosity (298.15 K, 101.33 kPa): 2.351 ± 0.029 mPa·s | viscosity (303.15 K, 101 kPa): 2.07 ± 0.016 mPa·s and 2.124 ± 0.021 mPa·s | viscosity (308.15 K, 101.33 kPa): 1.895 ± 0.024 mPa·s | viscosity (318.15 K, 101.33 kPa): 1.448 ± 0.018 mPa·s

SMILES: C1CC[C@H]2CCCC[C@@H]2C1
viscosity (293.15 K, 101.3 kPa): 2.118 ± 0.032 mPa·s | viscosity (293.15 K, 102 kPa): 2.14 ± 0.02 mPa·s | viscosity (303.15 K, 101 kPa): 1.616 ± 0.039 mPa·s | viscosity (303.15 K, 102 kPa): 1.79 ± 0.02 mPa·s | viscosity (323.15 K, 102 kPa): 1.3 ± 0.02 mPa·s

viscosity (298.15 K, 101 kPa): 1015 ± 50 mPa·s
SMILES: CC(C)[C@H](N)C(=O)[O-].CCCC[P+](CCCC)(CCCC)CCCN

SMILES: NCCOCCOCCN.O=S(=O)([N-]S(=O)(=O)C(F)(F)F)C(F)(F)F.[Li+]
viscosity (323.15 K, 101 kPa): 108.2 ± 6.5 mPa·s

SMILES: CCOCCOCCOCCO
viscosity (298.15 K, 101.33 kPa): 7.042 ± 0.079 mPa·s

SMILES: C[N+](C)(C)C.NCC(=O)[O-]
viscosity (303 K, 101 kPa): 306.2 ± 18 mPa·s

SMILES: CCCC[n+]1ccccc1.O=S(=O)([N-]S(=O)(=O)C(F)(F)F)C(F)(F)F
viscosity (293.15 K, 100 kPa): 68.87 ± 1.5 mPa·s | viscosity (298.15 K, 100 kPa): 52.94 ± 1.1 mPa·s | viscosity (303.15 K, 100 kPa): 41.94 ± 0.88 mPa·s | viscosity (303.15 K, 101 kPa): 49.4 ± 1.2 mPa·s | viscosity (308.15 K, 100 kPa): 33.75 ± 0.71 mPa·s | viscosity (313.15 K, 100 kPa): 27.63 ± 0.58 mPa·s | viscosity (313.15 K, 101 kPa): 33.8 ± 0.8 mPa·s | viscosity (323.15 K, 101 kPa): 24.2 ± 0.6 mPa·s

SMILES: NNc1ccccc1
viscosity (303.15 K, 101 kPa): 10.09 ± 0.27 mPa·s | viscosity (323.1 K, 101 kPa): 4.58 ± 0.1 mPa·s and 4.58 ± 0.096 mPa·s

SMILES: CCCOCCO + CCCO
viscosity ([1]; 298.15 K, 101.33 kPa, x1 = 0.0085): 1.95 ± 0.015 mPa·s | viscosity ([1]; 298.15 K, 101.33 kPa, x1 = 0.0212): 1.945 ± 0.016 mPa·s | viscosity ([1]; 298.15 K, 101.33 kPa, x1 = 0.0386): 1.944 ± 0.016 mPa·s | viscosity ([1]; 298.15 K, 101.33 kPa, x1 = 0.0573): 1.944 ± 0.016 mPa·s | viscosity ([1]; 298.15 K, 101.33 kPa, x1 = 0.0817): 1.943 ± 0.016 mPa·s | viscosity ([1]; 298.15 K, 101.33 kPa, x1 = 0.0917): 1.942 ± 0.016 mPa·s | viscosity ([1]; 298.15 K, 101.33 kPa, x1 = 0.1295): 1.944 ± 0.016 mPa·s | viscosity ([1]; 298.15 K, 101.33 kPa, x1 = 0.157): 1.948 ± 0.016 mPa·s | viscosity ([1]; 298.15 K, 101.33 kPa, x1 = 0.2095): 1.961 ± 0.017 mPa·s | viscosity ([1]; 298.15 K, 101.33 kPa, x1 = 0.2715): 1.976 ± 0.017 mPa·s | viscosity ([1]; 298.15 K, 101.33 kPa, x1 = 0.323): 1.994 ± 0.018 mPa·s | viscosity ([1]; 298.15 K, 101.33 kPa, x1 = 0.3675): 2.01 ± 0.018 mPa·s | viscosity ([1]; 298.15 K, 101.33 kPa, x1 = 0.4185): 2.031 ± 0.019 mPa·s | viscosity ([1]; 298.15 K, 101.33 kPa, x1 = 0.4527): 2.046 ± 0.02 mPa·s | viscosity ([1]; 298.15 K, 101.33 kPa, x1 = 0.5174): 2.072 ± 0.02 mPa·s | viscosity ([1]; 298.15 K, 101.33 kPa, x1 = 0.5743): 2.103 ± 0.021 mPa·s | viscosity ([1]; 298.15 K, 101.33 kPa, x1 = 0.6243): 2.125 ± 0.022 mPa·s | viscosity ([1]; 298.15 K, 101.33 kPa, x1 = 0.6804): 2.151 ± 0.023 mPa·s | viscosity ([1]; 298.15 K, 101.33 kPa, x1 = 0.7324): 2.186 ± 0.024 mPa·s | viscosity ([1]; 298.15 K, 101.33 kPa, x1 = 0.7821): 2.219 ± 0.025 mPa·s | viscosity ([1]; 298.15 K, 101.33 kPa, x1 = 0.853): 2.257 ± 0.026 mPa·s | viscosity ([1]; 298.15 K, 101.33 kPa, x1 = 0.9063): 2.294 ± 0.027 mPa·s | viscosity ([1]; 298.15 K, 101.33 kPa, x1 = 0.9599): 2.326 ± 0.028 mPa·s

viscosity ([1]; 293.15 K, 101 kPa, x2 = 0.4991): 75.1 ± 20 mPa·s | viscosity ([1]; 303.15 K, 101 kPa, x2 = 0.7003): 9.24 ± 1.5 mPa·s | viscosity ([1]; 308.15 K, 101 kPa, x2 = 0.7003): 8.17 ± 1.3 mPa·s
SMILES: CCCCn1cc[n+](C)c1.[Cl-] + CCO

viscosity ([1]; 298.15 K, 101 kPa, x2 = 0.284): 80 ± 20 mPa·s | viscosity ([1]; 308.15 K, 101 kPa, x2 = 0.284): 45.7 ± 10 mPa·s | viscosity ([1]; 318.15 K, 101 kPa, x2 = 0.284): 27.6 ± 6.6 mPa·s
SMILES: C=CCNCC=C.CC(=O)O + O
